This note sets out measurements from patent publication US20160272937A1, “METHODS OF GENERATING INTERMEDIATE MESODERM CELLS FROM HUMAN PLURIPOTENT STEM CELLS” (THE BRIGHAM AND WOMEN'S HOSPITAL, INC., priority 2013, published 2016).

Experiment [1] relates to human pluripotent stem cells (hPSCs). Put plainly: Quantitative RT-PCR gene expression in CHIR-treated hPSCs. Format: cell-based. Here is the method:
Total RNA is harvested and isolated from cells using the RNeasy Mini Kit (Qiagen). 1 μg RNA is used for reverse transcription with the M-MLV Reverse Transcriptase system (Promega), or 500 ng RNA is used for High Capacity cDNA Reverse Transcription Kits (Applied Biosystems). RT-PCR reactions can be run in duplicate using cDNA (diluted 1:10), 300 or 400 nM forward and reverse primers, and iQ SYBR Green Supermix (Biorad) or iTAQ SYBR Green Supermix (Biorad). Quantitative RT-PCR is performed using the iQ5 Multicolor Real-Time PCR Detection System (Biorad). Samples can be run with two technical replicates to ensure precision and accuracy. β-actin can be used as a housekeeping gene. […] In parallel, the induction of the mesendoderm state was accompanied by the loss of pluripotency as reflected by a reduction of OCT4 and NANOG mRNA (FIG. 1D). […] As cells migrate through the primitive streak during development, they express SNAIL, downregulate E-cadherin expression, upregulate N-cadherin expression, and undergo an epithelial-mesenchymal transition (“EMT”). […] This was associated with EMT with waves of cells migrating away from the periphery of differentiating colonies between 36-48 hours of differentiation (FIG. 1G), and a switch in cadherin expression from E-cadherin to N-cadherin (FIG. 1H).

For experiment [2] the test system is unchanged. Description: Mesendoderm induction: BRACHYURY immunofluorescence in hPSCs. Format: cell-based. As to the method: For differentiation experiments, hESCs or hiPSCs can be grown on Geltrex, washed once with PBS and dissociated into single cells with Accutase ([…] Technologies). Cells are plated at a density of 4×10^4 cells/cm^2 onto Geltrex-coated plates in mTeSR1 medium supplemented with the ROCK inhibitor Y27632 10 μM (Stemgent). Cells are fed daily with mTeSR1 without Y27632 for 2-3 days until they reached 50% confluency. Mesendoderm differentiation-the media is changed to Advanced RPMI (A-RPMI, Invitrogen) supplemented with 1×L-glutamax and 1× penicillin/streptomycin and either CHIR99021 (CHIR, Stemgent), human Wnt3a (R&D systems), and/or human activin A (R&D systems) at the doses described. Definitive endoderm differentiation-cells are treated with […] for 24 hours, then […]+100 ng/mL of activin A for 2-3 days. Hepatic differentiation-cells at the definitive endoderm stage are treated with […]27 supplement (Invitrogen)+20 ng/mL BMP-4 (R&D systems)+10 ng/mL FGF2 (Invitrogen) for 5 days, then […]27+10 ng/mL HGF for 5 days, then HCM Hepatocyte Culture Medium (Lonza) supplemented with 20 ng/mL Oncostatin M and 10 ng/mL HGF (Peprotech) for 5 days. Pancreatic differentiation-cells at the definitive endoderm stage are treated with DMEM/F12+2% FBS (Hyclone)+50 ng/mL FGF7 (R&D systems) for 2 days, then high-glucose DMEM (Mediatech)+1% B27+2 μM retinoic acid (Sigma)+0.25 μM KAAD cyclopamine (EMD Millipore)+100 ng/mL recombinant human Noggin (R&D systems) for 4 days, then high-glucose DMEM+1% B27+100 ng/mL Noggin+300 nM indolactam V (Stemgent)+1 μM ALK5 inhibitor II (Axxora) for 4 days. Anterior foregut endoderm differentiation-cells at the definitive endoderm stage are treated with DMEM/F12+1×L-glu+1×B27+200 ng/mL Noggin+10 μM SB431542 (Stemgent) for 3 days. […] Immunofluorescence is visualized using an inverted fluorescence microscope (Nikon Eclipse Ti, Tokyo, Japan). Quantification is performed by counting a minimum of five random fields at 10× magnification. […]

Turning to `Cc1c[nH]c(-c2cnc(NCCNc3ccc(C#N)cn3)nc2-c2ccc(Cl)cc2Cl)n1` [CHIR99021], in experiment [1] (CHIR for 24 or 48 hours, day 4, compared to DMSO-treated controls), the BMP-4 transcript expression result is reported as “significantly upregulated”. The “OCT4 and NANOG mRNA” value in experiment [1] (CHIR time course) is recorded as “reduction”. In experiment [1] (as early as 24 hours after treatment), the SNAI1 expression entry was “upregulation”. Also, the “expression of primitive streak genes (BRACHY, MIXL1, EOMES, FOXA2, GSC)” value in experiment [1] (within 24 hours of treatment, peak 36-48 hours, decreased by 72 hours) is listed as “rapidly upregulated”. Further, in experiment [2] (5 μM, 24 hours), the “cells expressing BRACHY” value was 98.7±1.3%. Moreover, in experiment [2] (summary statement), the “efficiency of BRACHYURY+MIXL1+ mesendoderm differentiation” value is recorded as roughly 100%.
